These results are taken from paper PMC3427316 (PLoS ONE, 2012).

Each structure is given as a SMILES string.

Experiment [1] has as its system NA with I223R mutation of H1N1pdm09 virus. The class given is biochemical, influenza A(H1N1)pdm09 virus.
Experiment [2] relates to H1N1pdm09 virus resistant to oseltamivir. The settings on record: zanamivir inhaled (n = 8), intravenous (n = 5) or nebulised (n = 1); cited from earlier work.

As to `CCC(CC)O[C@@H]1C=C(C(=O)O)C[C@H](N)[C@H]1NC(C)=O` [OC, oseltamivir carboxylate], the “reduction in susceptibility associated with the I223R mutation” value in experiment [1] is reported as 9 to 18 fold.

For the compound `CC(=O)N[C@H]1[C@H]([C@H](O)[C@H](O)CO)OC(C(=O)O)=C[C@@H]1N=C(N)N` [ZAN, zanamivir], the “patients with reduced viral shedding or recovery” value in experiment [2] is listed as 12/14.
